Experimental data from patent publication US10310377B2, “Material for forming film for lithography, composition for forming film for lithography, film for lithography, pattern forming method and purification method” (Mitsubishi Gas Chemical Company, Inc., priority 2014, dated 2019).

Tests used:
[1] = Solubility in PGME, PGMEA, CPN and CHN at 23° C.
Procedure: Herein, the solubility in PGME and/or PGMEA, and/or CPN, and/or CHN is defined as “Mass of resin/(Mass of resin+Mass of solvent)×100 (% by mass)”.
The amount of each compound dissolved in 1-methoxy-2-propanol (PGME), propylene glycol monomethyl ether acetate (PGMEA), cyclopentanone (CPN), and cyclohexanone (CHN) was measured at 23° C., and the results were evaluated according to the following criteria.
Evaluation A: 10% by mass or more
Evaluation B: less than 10% by mass

[2] = Thermogravimetric measurement (TG), 15% thermal weight loss temperature; type: physicochemical
[3] = cyclopentanone and cyclohexanone
[4] = 1-methoxy-2-propanol and propylene glycol monomethyl ether acetate

| Molecule | solubility in CPN and CHN [1, 3] | solubility in CPN and CHN (Evaluation) [1, 3] | 15% thermal weight loss temperature [2] | solubility in PGME and PGMEA [1, 4] | solubility in PGME and PGMEA (Evaluation) [1, 4] |
| --- | --- | --- | --- | --- | --- |
| c1ccc2c(c1)c1ccccc1c1c3ccccc3c3ccccc3c21 [DBC, dibenzo[g,p]chrysene] | ≥ 10 % by mass | A (10% by mass or more) | ≥ 400 °C |  |  |
| tetraallyloxydibenzochrysene [TAODBC] |  |  |  | ≥ 10 % by mass | A (10% by mass or more) |
